Source: patent publication US7060808B1, “Humanized anti-EGF receptor monoclonal antibody” (ImClone Systems Incorporated, priority 1995, dated 2006)

System: A431 cells
Assay: Inhibition of A431 cells by 225-CDR peptides (3H-thymidine)
Assay type: cell-based, human
Conditions: 72 hours, FIG. 5
Protocol: These peptides were dissolved in PBS at a concentration of 1 mg/ml. A431 cells were plated at 1000 cells per well in 96 well plates. Peptides were added at various concentrations. […] Plates were incubated for 72 hours at 37° C. and pulsed overnight with ^3H-thymidine. Cells were harvested and counted in a liquid scintillation counter. Percent inhibition is defined as the decrease in 3-H thymidine incorporation of antibody or peptide treated cells compared to cells grown in the absence of antibody or peptide.

Row | Substance | inhibition of A431 cells (3H-thymidine incorporation)
1 | GVIWSGGNTDYNTPFTSR [heavy chain CDR-2] | inhibited
2 | NYGVH [heavy chain CDR-1] | inhibited
